Patent US20240139185A1, “COMPOUNDS THAT PARTICIPATE IN COOPERATIVE BINDING AND USES THEREOF” (Revolution Medicines, Inc., priority 2018, published 2024)

Key:
cyclophilin A (CYPA) = cyclophilin A (CYPA) (Homo sapiens, UniProt P62937); assay: CYPA-compound binary complex formation by SPR; details: read-out: CYPA Binding Affinity
Method in brief: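 CypA-Avi captured on a Biotin CAPture chip (4 μg/ml), reference flow cell subtracted. Compounds injected as 10-point 2-fold dilutions from 50 μM in HBS-P+ pH7.4 with 2% DMSO; 60 s association and 60 s dissociation, solvent-corrected. Affinity obtained by steady-state fitting.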

[1] = molecular target: T1, BRAF-GTP-KRAS-G12C complex (Homo sapiens, UniProt P01116+P62937, G12C); assay: KRAS-BRAF complex disruption through competition with CYPA-compound by TR-FRET; details: biochemical BRAF-KRAS G12C-GTP disruption assay EC50, with CYPA
T1 construct: 50 nM of His6-KRas G12C-GTP (1-169); 500 nM of tagless CypA (1-165)
Method in brief: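 His6-KRAS G12C-GTP (1-169, 50 nM) with tagless CypA (1-165, 500 nM) was incubated with compound for 3 h at room temperature in pH 7.3 Hepes/NaCl/MgCl2 buffer containing GST-BRAF RBD. Anti-His Eu (10 nM) and anti-GST APC (50 nM) were then added for 1.5 h, and the 665/615 nm TR-FRET ratio was read. EC50 from 4-parameter fit; for specificity, wild-type KRAS replaced G12C, and CypA was omitted to test presenter dependence.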

pERK in H358 cells = assay: pERK inhibition in H358 cells; assay type: cell-based, human; details: 4 hours treatment, read-out: Cellular pERK inhibition
Method in brief: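 Human lung cancer H358 cells in RPMI/10% FBS were exposed to compound or DMSO for 4 h. Fixed and permeabilized cells were stained overnight at 4 C with anti-phospho-ERK1/2 (Thr202/Tyr204). Near-infrared imaging read the pERK signal at 800 nm, with DRAQ5 at 700 nm.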

Compound | Kd (cyclophilin A (CYPA)) [µM] | EC50 [1] [µM] | IC50 (pERK in H358 cells) [µM]
CC(C)[C@@H](C(=O)N[C@H]1Cc2cc(O)cc(c2)-c2ccc3c(C#N)cn(c3n2)CC(C)(C)COC(=O)[C@@H]2CCCN(N2)C1=O)N(C)C(=O)C1CN(C(=O)CCl)C1 [Compound 176] | 5 to 15 | ≤ 0.5 | 1 to 10
CC(C)[C@@H](C(=O)N[C@H]1Cc2cc(O)cc(c2)-c2ccc3c(c2)N(CC(C)(C)COC(=O)[C@@H]2CCCN(N2)C1=O)C(=O)C3)N(C)C(=O)C1CN(C(=O)CCl)C1 [Compound 177] | 5 to 15 | ≤ 0.5 | 1 to 10
CC(C)[C@@H](C(=O)N[C@H]1Cc2cc(O)cc(c2)-c2cc3c(ccn3CC(C)(C)COC(=O)[C@@H]3CCCN(N3)C1=O)cn2)N(C)C(=O)C1CN(C(=O)CCl)C1 [Compound 178] | 5 to 15 | 0.5 to 5 | > 10
CC(C)[C@@H](C(=O)N[C@H]1Cc2cc(O)cc(c2)-c2ccc3c(C#N)ccc(c3c2)OCCCOC(=O)[C@@H]2CCCN(N2)C1=O)N(C)C(=O)C1CN(C(=O)CCl)C1 [Compound 185] | ≤ 5 | 0.5 to 5 | > 10
CCN1CCC(=O)N2C[C@H](C)COC(=O)[C@@H]3CCCN(N3)C(=O)[C@@H](NC(=O)[C@H](C(C)C)N(C)C(=O)C3CN(C(=O)CCl)C3)Cc3cc(O)cc(c3)-c3ccc1c2c3 [Compound 186] | 5 to 15 | > 5 | > 10
CCN1CCCN2C[C@H](C)COC(=O)[C@@H]3CCCN(N3)C(=O)[C@@H](NC(=O)[C@H](C(C)C)N(C)C(=O)C3CN(C(=O)CCl)C3)Cc3cc(O)cc(c3)-c3ccc1c2c3 [Compound 187] | 5 to 15 | > 5 | > 10
CCN1C(=O)CCN2C[C@H](C)COC(=O)[C@@H]3CCCN(N3)C(=O)[C@@H](NC(=O)[C@H](C(C)C)N(C)C(=O)C3CN(C(=O)CCl)C3)Cc3cc(O)cc(c3)-c3ccc1c2c3 [Compound 188] | ≤ 5 | > 5 | > 10
CC(C)[C@@H](C(=O)N[C@H]1Cc2cc(O)cc(c2)-c2ccc3c(c2)n(c(=O)n3C)CC(C)(C)COC(=O)[C@@H]2CCCN(N2)C1=O)N(C)C(=O)C1CN(C(=O)CCl)C1 [Compound 189] | ≤ 5 | ≤ 0.5 | ≤ 1
CC#CC(=O)N1CC(C(=O)N(C)[C@H](C(=O)N[C@H]2Cc3cc(O)cc(c3)-c3ccc4c(c3)n(c(=O)n4C)CC(C)(C)COC(=O)[C@@H]3CCCN(N3)C2=O)C(C)C)C1 [Compound 190] | ≤ 5 | 0.5 to 5 | > 10
C=CC(=O)N1CCN([C@H](C(=O)N[C@H]2Cc3cc(O)cc(c3)-c3ccc4cnn(c4c3)CC(C)(C)COC(=O)[C@@H]3CCCN(N3)C2=O)C(C)C)C1=O [Compound 199] | 5 to 15 | 0.5 to 5 | > 10
C=CC(=O)N1CCN([C@H](C(=O)N[C@H]2Cc3cc(O)cc(c3)-c3ccc4c(Cl)nn(c4c3)CC(C)(C)COC(=O)[C@@H]3CCCN(N3)C2=O)C(C)C)C1=O [Compound 200] | > 15 | ≤ 0.5 | > 10
CC(C)[C@@H](C(=O)N[C@H]1Cc2cc(O)cc(c2)-c2ccc3c(Cl)nn(c3c2)CC(C)(C)COC(=O)[C@@H]2CCCN(N2)C1=O)N(C)C(=O)C1CN(C(=O)CCl)C1 [Compound 201] | > 15 | ≤ 0.5 | ≤ 1
CC(C)[C@@H](C(=O)N[C@H]1Cc2cc(O)cc(c2)-c2ccc3c(C(F)F)nn(c3c2)C[C@H](C)COC(=O)[C@@H]2CCCN(N2)C1=O)N(C)C(=O)C1CN(C(=O)CCl)C1 [Compound 202] | ≤ 5 | ≤ 0.5 | 1 to 10
C=CC(=O)N1CCC1C(=O)N(C)C(C(=O)NC1Cc2cc(O)cc(c2)-c2ccc3c(C(F)F)nn(c3c2)CC(C)COC(=O)C2CCCN(N2)C1=O)C(C)C (stereo not drawn) [Compound 203] | > 15 | > 5 | > 10
C=CC(=O)N1CCC1C(=O)N(C)C(C(=O)NC1Cc2cc(O)cc(c2)-c2ccc3c(C(F)F)nn(c3c2)CC(C)COC(=O)C2CCCN(N2)C1=O)C(C)C (stereo not drawn) [Compound 204] | 5 to 15 | > 5 | 1 to 10
C=CC(=O)N1CCCC1C(=O)N(C)C(C(=O)NC1Cc2cc(O)cc(c2)-c2ccc3c(C(F)F)nn(c3c2)CC(C)COC(=O)C2CCCN(N2)C1=O)C(C)C (stereo not drawn) [Compound 205] | > 15 | > 5 | > 10
CC(C)[C@@H](C(=O)N[C@H]1Cc2cc(O)cc(c2)-c2ccc3c(-c4ccnn4C)cn(c3c2)CC(C)(C)COC(=O)[C@@H]2CCCN(N2)C1=O)N(C)C(=O)C1CN(C(=O)CCl)C1 [Compound 239] | ≤ 5 | ≤ 0.5 | 1 to 10
Cc1cnn(C)c1-c1cn2c3cc(ccc13)-c1cc(O)cc(c1)C[C@H](NC(=O)[C@H](C(C)C)N(C)C(=O)C1CN(C(=O)CCl)C1)C(=O)N1CCC[C@H](N1)C(=O)OCC(C)(C)C2 [Compound 240] | 5 to 15 | ≤ 0.5 | 1 to 10
CC(C)[C@@H](C(=O)N[C@H]1Cc2cc(O)cc(c2)-c2ccc3c(-c4ccccc4Cl)cn(c3c2)CC(C)(C)COC(=O)[C@@H]2CCCN(N2)C1=O)N(C)C(=O)C1CN(C(=O)CCl)C1 [Compound 241] | > 15 | ≤ 0.5 | 1 to 10
CC(C)[C@@H](C(=O)N[C@H]1Cc2cc(O)cc(c2)-c2ccc3c(-c4ccccc4F)cn(c3c2)CC(C)(C)COC(=O)[C@@H]2CCCN(N2)C1=O)N(C)C(=O)C1CN(C(=O)CCl)C1 [Compound 242] | > 15 | ≤ 0.5 | 1 to 10
CC(C)C1COC(=O)[C@@H]2CCCN(N2)C(=O)[C@@H](NC(=O)[C@H](C(C)C)N(C)C(=O)C2CN(C(=O)CCl)C2)Cc2cc(O)cc(c2)-c2ccc3c(C(C)(C)C#N)cn(c3c2)C1 (stereo partly drawn) [Compound 246] | 5 to 15 | ≤ 0.5 | 1 to 10
CC(C)[C@@H](C(=O)N[C@H]1Cc2cc(O)cc(c2)-c2ccc3c(CCC#N)cn(c3c2)CC(C)(C)COC(=O)[C@@H]2CCCN(N2)C1=O)N(C)C(=O)C1CN(C(=O)CCl)C1 [Compound 256] | ≤ 5 | ≤ 0.5 | ≤ 1
CC(C)[C@@H](C(=O)N[C@H]1Cc2cc(O)cc(c2)-c2ccc3c(-c4ccn(C)n4)cn(c3c2)CC(C)(C)COC(=O)[C@@H]2CCCN(N2)C1=O)N(C)C(=O)C1CN(C(=O)CCl)C1 [Compound 257] | 5 to 15 | ≤ 0.5 | 1 to 10
CC#CC(=O)N1CC2(CCN([C@H](C(=O)N[C@H]3Cc4cc(O)cc(c4)-c4ccc5c(C(C)(C)C#N)cn(c5c4)CC(C)(C)COC(=O)[C@@H]4CCCN(N4)C3=O)C(C)C)C2=O)C1 [Compound 259] | 5 to 15 | 0.5 to 5 | > 10
CC(C)[C@@H](C(=O)N[C@H]1Cc2cc(O)nc(c2)-c2ccc3c(C(C)(C)C#N)cn(c3c2)CC(C)(C)COC(=O)[C@@H]2CCCN(N2)C1=O)N(C)C(=O)C1CN(C(=O)CCl)C1 [Compound 339] | ≤ 5 | > 5 | > 10
CC#CC(=O)N1CCN(C(=O)N(C)[C@H](C(=O)N[C@H]2Cc3cc(O)cc(c3)-c3ccc4c(C(C)(C)C#N)cn(c4c3)CC(C)(C)COC(=O)[C@@H]3CCCN(N3)C2=O)C(C)C)CC1 [Compound 343] | ≤ 5 | 0.5 to 5 | 1 to 10
